The values below come from patent US6569895B1, “Compounds and methods for the treatment of cardiovascular, inflammatory and immune disorders” (Millennium Pharmaceuticals, Inc., priority 1995, dated 2003).

Where “and” joins values, the source holds several entries; their conditions need not be identical. Equal entries are not always repeated.

Test [1] has as its target T1, Cytosol 5-Lipoxygenase of Rat Basophile Leukemia Cells (Rattus norvegicus, UniProt P12527).
T1 construct: endogenous in cells; host or cells: RBL-2H3 cells (sonicate, 20,000 x g supernatant)
T1 sequence (P12527 1-673): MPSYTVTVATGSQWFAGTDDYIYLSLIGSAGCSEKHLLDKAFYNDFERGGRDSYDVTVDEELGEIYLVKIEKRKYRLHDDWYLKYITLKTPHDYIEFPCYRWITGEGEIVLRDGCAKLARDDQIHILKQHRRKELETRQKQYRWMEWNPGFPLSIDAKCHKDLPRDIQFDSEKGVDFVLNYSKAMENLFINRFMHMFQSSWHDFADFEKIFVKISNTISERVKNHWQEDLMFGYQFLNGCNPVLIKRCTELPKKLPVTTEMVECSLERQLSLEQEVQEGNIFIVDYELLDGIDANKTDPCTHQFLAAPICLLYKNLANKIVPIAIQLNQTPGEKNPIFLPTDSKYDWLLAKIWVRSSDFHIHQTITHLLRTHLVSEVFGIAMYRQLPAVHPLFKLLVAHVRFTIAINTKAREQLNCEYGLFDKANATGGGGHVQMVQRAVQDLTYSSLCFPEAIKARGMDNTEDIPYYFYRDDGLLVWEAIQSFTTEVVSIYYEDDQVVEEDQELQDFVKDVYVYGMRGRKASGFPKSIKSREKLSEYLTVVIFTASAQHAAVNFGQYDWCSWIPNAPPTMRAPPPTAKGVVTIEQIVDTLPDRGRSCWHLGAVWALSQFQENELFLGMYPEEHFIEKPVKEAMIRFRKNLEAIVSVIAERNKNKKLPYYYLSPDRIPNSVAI
The test is described as follows: Cytosol 5-lipoxygenase of rat basophilic leukemia cells (RBL-2H3 preparation). In kind it is biochemical. The note with it: RBL-2H3 cytosol preparation, [14C]arachidonic acid. The protocol: A wide variety of biological assays have also been used to evaluate the ability of a compound to inhibit the enzyme 5-lipoxygenase. For example, a cytosol 5-lipoxygenase of rat basophilic leukemia cells (RBL) has been widely utilized in studies on leukotriene biosynthesis. Compounds that inhibit 5-lipoxygenase decrease the levels of leukotrienes.
RBL-2H3 cells were grown to confluence in tissue culture flasks according to Carter et al. (J Pharm Exp Ther 256(3); 929-937, 1991). The cells were harvested and washed five times in calcium-and magnesium-free D-PBS. The cells were suspended at 2×10^7/M in 10 mM BES, 10 mM PIPES, pH 6.8, 1 mM EDTA and then sonicated. The sonicate was centrifuged at 20,000×g for 20 minutes at 4° C. The supernatant was then removed and stored in aliquots at −70° C.
The 5-LO activity in the RBL-2H3 preparation was determined as follows: 0.1 ml reactions consisting of 0.7 mM CaCl2, 100 mM NaCl, 1 mM EDTA, 10 mM BES, 10 MM PIPES, pH 7.4, varying concentrations of test compound dissolved in DMSO (7.5% DMSO final in assay), and an amount of the RBL-2H3 preparation that will convert 15% of the arachidonic acid substrate mixture to oxygenated products (determined experimentally for each RBL-2H3preparation), were incubated for 20 minutes at room temperature. The reaction was initiated by the addition of 5 μl of the arachidonic acid substrate mixture (0.944 nmol [^14C] arachidonic acid and 6.06 nmol arachidonic acid per assay in 0.028% NH4OH), and allowed to proceed for 5 minutes at 37° C. The reaction was terminated by the addition of 0.12 ml of a mixture of (i) 1.66 mg/ml triphenylphosphine in ethyl ether; (ii) methanol; and (iii) 0.2M citric acid (30:4:1); followed by centrifugation at 1000×g for 1 minute. […] The film was developed, scanned using a densitometer, and the peak areas of arachidonic acid and its product(s) are calculated. The percent inhibition was determined from the amount of [14C]-arachidonic acid converted into oxygenated products in samples containing test compound relative to that of control samples (no test compound).

The test system of test [2] is Leukotriene B4 production in ionophore-stimulated human whole blood. Description: Inhibition of leukotriene B4 production in ionophore-stimulated human whole blood. Format: cell-based. The note with it: A23187 stimulated, LTB4 by EIA, read-out: HWB IC50. On the procedure:
Another biological assay used to evaluate the ability of a compound to inhibit the enzyme 5-lipoxygenase is based on the classic pharmacological model of inflammation induced by inhibition of LTB, from ionophore stimulated human whole blood.
Human blood was drawn into heparinized blood collection tubes, and aliquoted in 1 ml portions into 1.5 ml microfuge tubes. Test compound ([…]) of varying concentrations, dissolved in DMSO, was added to the blood sample and incubated for 15 minutes at 37° C. Calcium ionophore ([…], A23187) in DMSO was added to a final concentration of […], and the samples were incubated for 30 minutes at 37° C. Samples are then centrifuged at 1100×g (2500 rpm, H1000B rotor, in a Sorvall centrifuge) for 10 minutes at 4° C. Supernatant ([…]) was transferred into a 1.5 ml microfuge tube, […] of cold methanol added, and proteins precipitated on ice for 30 minutes. The samples were centrifuged at 110×g for 10 minutes at 4° C., and the supernatant assayed for LTB4 using a commercially available EIA kit (Cayman Chemical) according to manufacturer's specifications.

For test [3], the system named is 5-Lipoxygenase (LTB4 in whole blood). The test is described as follows: Ex-vivo rat whole blood 5-lipoxygenase evaluation (LTB4). Format: in vivo. The note with it: 2 mg/k po. The protocol:
(§1) CD-1 female mice, weighing 18-25 grams, and CD female rats, weighing 150-230 grams, were obtained from Charles River Labs. Test compounds were dissolved in 0.5% DMSO in 0.9% NaCl, for administration in mice (0.5 mg/ml) and in an alcohol vehicle (2% benzyl alcohol, 1% ethanol, 40% PEG 300, 10% propylene glycol, 47% of 5% dextrose and 3.5% pluronic F-68 in DiH2O) for use in rats (5 mg/ml). […] Heparinized whole blood (0.3 ml) was added into 1.5 ml Eppendorf centrifuge tube containing […] of 2 mM calcium ionophore A23187 (the final concentration of A23187 was […]). The sample was incubated for 30 minutes in a water bath at 37° C., and then centrifuged for 2 minutes. The plasma was diluted (×120) and assayed for LTB4 using EIA.

A further test addresses PAF (Homo sapiens, UniProt P25105). The note with it: background statement; cited from earlier work.
The next test has as its target T2, 5-lipoxygenase (Homo sapiens, UniProt P09917).
T2 sequence (P09917 1-674): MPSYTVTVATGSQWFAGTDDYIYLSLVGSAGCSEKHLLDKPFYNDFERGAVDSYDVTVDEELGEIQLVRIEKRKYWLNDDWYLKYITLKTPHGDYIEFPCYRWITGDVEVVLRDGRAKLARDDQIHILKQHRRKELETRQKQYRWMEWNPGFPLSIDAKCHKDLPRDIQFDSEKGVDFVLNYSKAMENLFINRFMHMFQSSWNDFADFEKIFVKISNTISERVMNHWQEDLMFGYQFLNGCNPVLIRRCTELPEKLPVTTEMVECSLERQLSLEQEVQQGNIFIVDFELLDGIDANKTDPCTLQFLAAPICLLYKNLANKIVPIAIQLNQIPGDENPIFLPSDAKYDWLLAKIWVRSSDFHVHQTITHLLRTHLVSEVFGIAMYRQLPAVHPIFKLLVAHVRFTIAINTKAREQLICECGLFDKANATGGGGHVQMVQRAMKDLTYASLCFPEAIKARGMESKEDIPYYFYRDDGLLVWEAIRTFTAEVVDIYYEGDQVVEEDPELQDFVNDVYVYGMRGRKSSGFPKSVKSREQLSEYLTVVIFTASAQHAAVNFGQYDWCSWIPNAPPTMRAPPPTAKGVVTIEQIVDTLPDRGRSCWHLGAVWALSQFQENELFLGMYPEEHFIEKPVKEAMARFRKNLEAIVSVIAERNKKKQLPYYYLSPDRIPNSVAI
The note with it: background statement; cited from earlier work.

Test [4] deals with 5-Lipoxygenase (LTB4 in whole blood). The test is described as follows: Ex-vivo mouse whole blood 5-lipoxygenase evaluation (LTB4). Format: in vivo. Conditions: 3 mg/k iv, 60 minutes. The protocol: as §1

Chain of PAF (P25105 whole entry): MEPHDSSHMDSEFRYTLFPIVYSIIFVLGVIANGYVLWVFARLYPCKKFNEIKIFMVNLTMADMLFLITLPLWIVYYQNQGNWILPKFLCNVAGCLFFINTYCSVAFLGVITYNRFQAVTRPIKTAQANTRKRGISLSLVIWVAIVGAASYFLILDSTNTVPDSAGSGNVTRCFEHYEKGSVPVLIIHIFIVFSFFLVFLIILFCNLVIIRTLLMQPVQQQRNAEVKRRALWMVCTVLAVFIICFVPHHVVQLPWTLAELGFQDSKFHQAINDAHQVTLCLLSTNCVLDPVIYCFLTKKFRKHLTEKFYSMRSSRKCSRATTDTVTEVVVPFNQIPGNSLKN

The IC50 is the concentration at which inhibition is half-maximal. On to `NC(=O)N(O)CCCC[C@@H]1CC[C@@H](COc2ccc(F)cc2)O1`, for which the IC50 in test [1] was 1230 nM and 1400 nM.

As to `NC(=O)N(O)CCCC[C@@H]1CCC(COc2ccc(F)cc2)O1` (single isomer, unassigned), the IC50 in test [1] is 950 nM.

Consider `NC(=O)N(O)CCC#C[C@H]1CC[C@@H](COc2ccc(F)cc2)O1`, for which the IC50 in test [2] was 430 nM. Moreover, the “ex vivo LTB4 % inh.” value in test [3] (60 minutes) worked out at 86%; in test [3] (360 minutes) it was 63%.

As for `COc1cc([C@H]2CC[C@H](c3cc(OC)c(OC)c(OC)c3)S2)cc(OC)c1OC` (relative stereo) [L-653,150, trans-2,5-bis-(3,4,5-trimethoxyphenyl)tetrahydrothiophene], the PAF antagonist activity entry at PAF was “potent PAF antagonist”. Besides, at 5-lipoxygenase, the “inhibition of 5-lipoxygenase” value is on record as “moderate inhibitor of 5-lipoxygenase”. As for `NC(=O)N(O)CCC#C[C@@H]1CC[C@@H](COc2ccc(F)cc2)O1`, in test [1], the IC50 is 1380 nM and 1490 nM and 560 nM and 1600 nM and 720 nM. The “ex vivo LTB4 % inh.” value in test [4] came out at 22%. Turning to `NC(=O)N(O)CCC#C[C@H]1CC[C@H](COc2ccc(F)cc2)O1`, the IC50 in test [2] is 150 nM.
